Measurements reported in patent publication US8138146B2, “Antiviral peptide and antiviral agent” (priority 2006, dated 2012).
Like-named read-outs stand apart in the source and are kept apart here. No end group written: not given here.

Experiments:
Format in all cases: cell-based
[1] = test system: MDCK (Madrin Darby Canine Kidney) cell; experiment: Cytotoxicity control, MDCK cells without virus (Example 4); details: 48 hours
Procedure: The culture supernatant was removed from wells where a full sheet (monolayer) composed of MDCK cells was formed by the above culture. 2 mL of PBS was added to the wells and the wells were washed. This washing was repeated twice. Next, a viral solution prepared with MEM medium (no FBS added, containing 0.02% dextran and 1 μg/mL trypsin) so as to have 10^4 PFU/mL was used for inoculation at 0.1 mL per well, and culture was incubated in the presence of 5% CO2, at 34° C. for one hour, to adsorb the virus to the cells. After the incubation, was added 2 mL of MEM medium (no FBS added, containing 0.02% dextran and 1 μg/mL trypsin) containing the test peptide at a given concentration so as to have 50 μM and 10 μM final concentrations of peptide in each well after addition. Note that a well was prepared as a control plot (control), in which 2 mL of the above-mentioned MEM medium not containing peptide was added. In addition, as the control group for evaluating the cytotoxicity of the test peptide, 2 mL of MEM medium (no FBS added, containing 0.02% dextran and 1 μg/mL trypsin) containing the test peptide at a given concentration was added each to wells (with full sheet formed) containing MDCK cells to which the above-mentioned viral solution was not added (that is to say, not containing virus). Then incubation was carried out in the presence of 5% CO2 at 34° C. for 48 hours.

[2] = test system: HVT (turkey herpes virus); experiment: HVT multiplication suppression, plaque assay in CEF cells; details: for Ratio (relative ratio of virus titer, no peptide = 1) / Titer: HVT FC-126 strain in CEF cells; for Titer: six days; for viral multiplication suppression effect (antiviral activity), in words: HVT in CEF cells, peptide 10, 50, 100 μM, number and size of plaques
[3] = test system: MDV (Marek's disease virus); details: for antiviral activity (viral multiplication suppression effect) against MDV, in words: MDV in CEF cells, peptide 50 and 100 μM; for Ratio / Titer: MDV type 1 Md5 strain in CEF cells; for Titer: four days

Row | Substance | Ratio (relative ratio of virus titer, no peptide = 1) ([2]; peptide 10 μM) | Titer ([2]; peptide 10 μM) | Ratio (relative ratio of virus titer, no peptide = 1) ([2]; peptide 50 μM) | Titer ([2]; peptide 50 μM) | Ratio (relative ratio of virus titer, no peptide = 1) ([2]; peptide 100 μM) | Titer ([2]; peptide 100 μM) | viral multiplication suppression effect (antiviral activity), in words [2] | further results
1 | YGRKKRRQRRRLPPLERLTLD-NH2 [Sample 3, YGRKKRRQRRR LPPLERLTLD-CONH2] | – | – | – | – | – | – | – | cytotoxicity [1]: no cytotoxicity was observed
2 | RKKKRKV LALKAGLDI-CONH2 (RKKKRKVLALKAGLDI-NH2) [Sample 4, modified SV40 NLS plus modified mouse PKI NES with one leucine deleted; 16 residues] | 0.95 | 1.8 × 10^4 PFU/mL | 0.47 | 9.0 × 10^3 PFU/mL | 0.24 | 4.5 × 10^3 PFU/mL | – | antiviral activity (viral multiplication suppression effect) against MDV, in words [3]: satisfactory antiviral activity; Ratio ([3]; peptide 50 μM): 0.63; Titer ([3]; peptide 50 μM): 4.27 × 10^6 TCID50; Ratio ([3]; peptide 100 μM): 0.47; Titer ([3]; peptide 100 μM): 3.16 × 10^6 TCID50
3 | RQARRNRRRRWR LPPLERLTLD-CONH2 (RQARRNRRRRWRLPPLERLTLD-NH2) [Sample 1, HIV REV-derived NLS on the N-terminal side, HIV-derived NES on the C-terminal side; 22 residues] | 0.75 | 7.8 × 10^4 PFU/mL | 0.25 | 2.6 × 10^4 PFU/mL | 0.13 | 1.4 × 10^4 PFU/mL | – | antiviral activity (viral multiplication suppression effect) against MDV, in words [3]: satisfactory antiviral activity; Ratio ([3]; peptide 50 μM): 0.36; Titer ([3]; peptide 50 μM): 2.40 × 10^6 TCID50; Ratio ([3]; peptide 100 μM): 0.1; Titer ([3]; peptide 100 μM): 6.76 × 10^5 TCID50
4 | YGRKKRRQRRR-CONH2 (YGRKKRRQRRR-NH2) [Comparative Sample 3, reference compound] | – | – | – | – | – | – | no viral multiplication suppression effect | –
5 | LPPLERLTLD-CONH2 (LPPLERLTLD-NH2) [Comparative Sample 2, reference compound] | – | – | – | – | – | – | no viral multiplication suppression effect | –
6 | LPPLERLTLD RQARRNRRRRWR-CONH2 (LPPLERLTLDRQARRNRRRRWR-NH2) [Sample 2, NES … on the N-terminal side, NLS … on the C-terminal side; 22 residues] | 0.91 | 8.0 × 10^4 PFU/mL | 0.59 | 5.2 × 10^4 PFU/mL | 0.57 | 5.0 × 10^4 PFU/mL | – | –
7 | RQARRNRRRRWR-CONH2 (RQARRNRRRRWR-NH2) [Comparative Sample 1, reference compound] | – | – | – | – | – | – | no viral multiplication suppression effect | –
8 | RKKKRKV-CONH2 (RKKKRKV-NH2) [Comparative Sample 4, reference compound] | – | – | – | – | – | – | no viral multiplication suppression effect | –
